Earlier results as cited in patent US20170143768A1, “OINTMENT FOR THE TREATMENT OF HEMORRHOIDAL DISEASE” (Global Treat SRL, priority 2014, published 2017).

- solubility in water: water-soluble
Compound: CC12CCC(CC1=O)C2(C)C (stereo not shown) [camphor]
